Patent publication US20240156754A1, “POWDER COMPOSITION FOR DISINFECTION OF THE TEATS OF DAIRY ANIMALS” (KLARECO SRL, priority 2022, published 2024)
Values joined by “and” are separate entries in the source; they are usually repeats but may differ in a detail not shown here. Equal entries are not always repeated.

Assay: Accelerated stability test (30° C., 65% RH, 18 weeks)
Format: physicochemical
Procedure: Accelerated stability test has been carried what to assess the quality of a test item prepared as the one in Example 7 during time, under the influence of temperature and humidity.
The test was conducted at 30° C., at 65% of relative humidity (RH), for 18 weeks.
[…], assessing: the appearance of each container (the one containing chloramine T and the one containing the excipients), appearance of the products therein, the weight loss of the products and the content of chloramine T.
Appearance of the test item and of the packaging was assessed under the lab light. Weight loss was assessed weighing each sample at T0 (WT0) and at the final time point (WTx) and compared with their initial value (%) according to the following formula:
Weight loss from initial %=[(WT0−WTx)*100]/(WT0)
The content of chloramine T was assessed as described in Example 7.

[1] = T8 w, single determination, 30° C./65% RH
[2] = T18 w, single determination, 30° C./65% RH

Available Chlorine, average (T0, average): 24.53 % w/w | CHLORAMINE T anhydrous, average (T0, average): 97.46 % w/w | CHLORAMINE T tri-hydrated, average (T0, average): 78.76 % w/w | CHLORAMINE T anhydrous (T0, single determination): 97.61 % w/w and 97.31 % w/w | CHLORAMINE T tri-hydrated (T0, single determination): 78.88 % w/w and 78.64 % w/w | Available Chlorine (T0, single determination, chloramine T container of kit): 24.57 % w/w and 24.49 % w/w | Available Chlorine, average (T8 w, average, 30° C./65% RH): 0.18 % w/w | CHLORAMINE T anhydrous, average (T8 w, average, 30° C./65% RH): 0.73 % w/w | CHLORAMINE T tri-hydrated, average (T8 w, average, 30° C./65% RH): 0.59 % w/w | Available Chlorine [1]: 0.18 % w/w | CHLORAMINE T anhydrous [1]: 0.73 % w/w | CHLORAMINE T tri-hydrated [1]: 0.59 % w/w | Tx/T0 %, Available Chlorine (T18 w versus T0, 30° C./65% RH): 100.4% | Tx/T0 %, CHLORAMINE T anhydrous (T18 w versus T0, 30° C./65% RH): 100.4% | Tx/T0 %, CHLORAMINE T tri-hydrated (T18 w versus T0, 30° C./65% RH): 100.4% | Available Chlorine, average (T18 w, average, 30° C./65% RH): 24.62 % w/w | CHLORAMINE T anhydrous, average (T18 w, average, 30° C./65% RH): 78.06 % w/w | CHLORAMINE T tri-hydrated, average (T18 w, average, 30° C./65% RH): 97.83 % w/w | Available Chlorine [2]: 24.59 % w/w and 24.86 % w/w | CHLORAMINE T anhydrous [2]: 78.94 % w/w and 79.18 % w/w | CHLORAMINE T tri-hydrated [2]: 97.68 % w/w and 97.99 % w/w | content of active chloramine T compared to T0 (after 18 weeks at 30° C./65% RH): 100.4% | variations in the appearance and weight (after 18 weeks at 30° C./65% RH, envelopes): no significant variations | appearance of the product versus T0 (after 18 weeks at 30° C./65% RH, sealed container): did not present variations from T0
Structure (SMILES): Cc1ccc(S(=O)(=O)[N-]Cl)cc1.[Na+] [Chloramine T, chloramine T]
